According to US12187713B2, “Immunomodulators, compositions and methods thereof” (Betta Pharmaceuticals Co., Ltd, priority 2019, dated 2025):
pIC50: −log10 of the molar value.

What follows are compounds tested against PD-1/PD-L1 (Homo sapiens (Human), UniProt Q9NZQ7) (assay: PD-1/PD-L1 Binding Assay (Alphascreen)). Settings: range symbols.
Method in brief: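 PD-1/PD-L1 binding detected by anti-6×His acceptor and streptavidin donor beads after 120 min in the dark at 25 °C. Beforehand, the two proteins were incubated 15 min at 25 °C with inhibitor at 0.015–300 nM (1% DMSO). IC50 comes from a log concentration–response curve.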

Sequence of PD-1/PD-L1 (Q9NZQ7 19-238): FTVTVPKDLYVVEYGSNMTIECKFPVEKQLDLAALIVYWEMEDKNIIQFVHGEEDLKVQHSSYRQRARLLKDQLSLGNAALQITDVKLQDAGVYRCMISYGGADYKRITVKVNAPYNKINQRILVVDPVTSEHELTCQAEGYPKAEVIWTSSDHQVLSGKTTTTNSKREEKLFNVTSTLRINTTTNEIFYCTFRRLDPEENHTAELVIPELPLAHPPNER

Row | pIC50 | SMILES
1 | 8.30 to 10.00 | Cc1c(-c2nc3cc(CN4CCC[C@H]4C(=O)O)c(OC(F)F)cc3o2)cccc1-c1cccc(-c2nc3cc(CN4CCCCC4CCO)cc(C#N)c3o2)c1C (stereo partly drawn) [Example 135, ((2-(3′-(7-cyano-5-((2-(2-hydroxyethyl)piperidin-1-yl)methyl)benzo[d]oxazol-2-yl)-2,2′-dimethyl-[1,1′-biphenyl]-3-yl)-6-(difluoromethoxy)benzo[d]oxazol-5-yl)methyl)-L-proline]
2 | 8.30 to 10.00 | Cc1c(-c2nc3cc(CN4CCC[C@H]4C(=O)O)c(OC(F)F)cc3o2)cccc1-c1cccc(-c2nc3cc(CN4CC(CO)C4)cc(C#N)c3o2)c1C [Example 137, ((2-(3′-(7-cyano-5-((3-(hydroxymethyl)azetidin-1-yl)methyl)benzo[d]oxazol-2-yl)-2,2′-dimethyl-[1,1′-biphenyl]-3-yl)-6-(difluoromethoxy)benzo[d]oxazol-5-yl)methyl)-L-proline]
3 | 8.30 to 10.00 | Cc1c(-c2nc3cc(CN4CCC[C@H]4C(=O)O)c(OC(F)F)cc3o2)cccc1-c1cccc(-c2nc3cc(CNCC(C)(C)O)cc(C#N)c3o2)c1C [Example 138, ((2-(3′-(7-cyano-5-(((2-hydroxy-2-methylpropyl)amino)methyl)benzo[d]oxazol-2-yl)-2,2′-dimethyl-[1,1′-biphenyl]-3-yl)-6-(difluoromethoxy)benzo[d]oxazol-5-yl)methyl)-L-proline]
4 | 8.30 to 10.00 | Cc1c(-c2nc3cc(CN4CCC[C@H]4C(=O)O)c(OC(F)F)cc3o2)cccc1-c1cccc(-c2nc3cc(CNCC4CCC(=O)N4)cc(C#N)c3o2)c1C (stereo partly drawn) [Example 139, ((2-(3′-(7-cyano-5-((((5-oxopyrrolidin-2-yl)methyl)amino)methyl)benzo[d]oxazol-2-yl)-2,2′-dimethyl-[1,1′-biphenyl]-3-yl)-6-(difluoromethoxy)benzo[d]oxazol-5-yl)methyl)-L-proline]
5 | 8.30 to 10.00 | Cc1c(-c2nc3cc(CN4CCC[C@@H]4C(=O)O)c(OC(F)F)cc3o2)cccc1-c1cccc(-c2nc3cc(CN4CC(C)(C)C4)cc(C#N)c3o2)c1C [Example 140, ((2-(3′-(7-cyano-5-((3,3-dimethylazetidin-1-yl)methyl)benzo[d]oxazol-2-yl)-2,2′-dimethyl-[1,1′-biphenyl]-3-yl)-6-(difluoromethoxy)benzo[d]oxazol-5-yl)methyl)-D-proline]
6 | 8.30 to 10.00 | CCN(CCO)Cc1cc(C#N)c2oc(-c3cccc(-c4cccc(-c5nc6cc(CN7CCC[C@H]7C(=O)O)c(OC(F)F)cc6o5)c4C)c3C)nc2c1 [Example 141, ((2-(3′-(7-cyano-5-((ethyl(2-hydroxyethyl)amino)methyl)benzo[d]oxazol-2-yl)-2,2′-dimethyl-[1,1′-biphenyl]-3-yl)-6-(difluoromethoxy)benzo[d]oxazol-5-yl)methyl)-L-proline]
7 | 8.30 to 10.00 | Cc1c(-c2nc3cc(CN4CCC[C@@H]4C(=O)O)c(OC(F)F)cc3o2)cccc1-c1cccc(-c2nc3cc(CN4CCC(C#N)C4)cc(C#N)c3o2)c1C (stereo partly drawn) [Example 143, ((2-(3′-(7-cyano-5-((3-cyanopyrrolidin-1-yl)methyl)benzo[d]oxazol-2-yl)-2,2′-dimethyl-[1,1′-biphenyl]-3-yl)-6-(difluoromethoxy)benzo[d]oxazol-5-yl)methyl)-D-proline]
8 | 8.30 to 10.00 | Cc1c(-c2nc3cc(CN4CCC[C@@H]4C(=O)O)c(OC(F)F)cc3o2)cccc1-c1cccc(-c2nc3cc(CN4CCCC4)cc(C#N)c3o2)c1C [Example 145, ((2-(3′-(7-cyano-5-(pyrrolidin-1-ylmethyl)benzo[d]oxazol-2-yl)-2,2′-dimethyl-[1,1′-biphenyl]-3-yl)-6-(difluoromethoxy)benzo[d]oxazol-5-yl)methyl)-D-proline]
9 | 8.30 to 10.00 | Cc1c(-c2nc3cc(CN4CCC[C@H]4C(=O)O)c(OC(F)F)cc3o2)cccc1-c1cccc(-c2nc3cc(CN4CC5(CNC(=O)C5)C4)cc(C#N)c3o2)c1C [Example 146, ((2-(3′-(7-cyano-5-((7-oxo-2,6-diazaspiro[3.4]octan-2-yl)methyl)benzo[d]oxazol-2-yl)-2,2′-dimethyl-[1,1′-biphenyl]-3-yl)-6-(difluoromethoxy)benzo[d]oxazol-5-yl)methyl)-L-proline]
10 | 8.30 to 10.00 | Cc1c(-c2nc3cc(CN4CCC[C@H]4C(=O)O)c(OC(F)F)cc3o2)cccc1-c1cccc(-c2nc3cc(CN(C(C)CO)C(C)CO)cc(C#N)c3o2)c1C (stereo partly drawn) [Example 147, ((2-(3′-(5-((bis(1-hydroxypropan-2-yl)amino)methyl)-7-cyanobenzo[d]oxazol-2-yl)-2,2′-dimethyl-[1,1′-biphenyl]-3-yl)-6-(difluoromethoxy)benzo[d]oxazol-5-yl)methyl)-L-proline]
11 | 7.30 to 8.30 | Cc1c(-c2nc3cc(CN4CCC[C@H]4C(=O)O)c(OC(F)F)cc3o2)cccc1-c1cccc(-c2nc3cc(CN4CC(N5CCOCC5)C4)cc(C#N)c3o2)c1C [Example 148, ((2-(3′-(7-cyano-5-((3-morpholinoazetidin-1-yl)methyl)benzo[d]oxazol-2-yl)-2,2′-dimethyl-[1,1′-biphenyl]-3-yl)-6-(difluoromethoxy)benzo[d]oxazol-5-yl)methyl)-L-proline]
12 | 8.30 to 10.00 | Cc1c(-c2nc3cc(CN4CCC[C@H]4C(=O)O)c(OC(F)F)cc3o2)cccc1-c1cccc(-c2nc3cc(CN4CC(N(C)C5COC5)C4)cc(C#N)c3o2)c1C [Example 149, ((2-(3′-(7-cyano-5-((3-(methyl(oxetan-3-yl)amino)azetidin-1-yl)methyl)benzo[d]oxazol-2-yl)-2,2′-dimethyl-[1,1′-biphenyl]-3-yl)-6-(difluoromethoxy)benzo[d]oxazol-5-yl)methyl)-L-proline]
13 | 8.30 to 10.00 | Cc1c(-c2nc3cc(CN4CCC[C@H]4C(=O)O)c(OC(F)F)cc3o2)cccc1-c1cccc(-c2nc3cc(CN4CC(N5CC(C)(O)C5)C4)cc(C#N)c3o2)c1C [Example 150, ((2-(3′-(7-cyano-5-((3-hydroxy-3-methyl-[1,3′-biazetidin]-1′-yl)methyl)benzo[d]oxazol-2-yl)-2,2′-dimethyl-[1,1′-biphenyl]-3-yl)-6-(difluoromethoxy)benzo[d]oxazol-5-yl)methyl)-L-proline]
14 | 8.30 to 10.00 | Cc1c(-c2nc3cc(CN4CCC[C@H]4C(=O)O)c(OC(F)F)cc3o2)cccc1-c1cccc(-c2nc3cc(CN4CC5(CCC(=O)N5)C4)cc(C#N)c3o2)c1C [Example 151, ((2-(3′-(7-cyano-5-((6-oxo-2,5-diazaspiro[3.4]octan-2-yl)methyl)benzo [d]oxazol-2-yl)-2,2′-dimethyl-[1,1′-biphenyl]-3-yl)-6-(difluoromethoxy)benzo[d]oxazol-5-yl)methyl)-L-proline]
15 | 8.30 to 10.00 | Cc1c(-c2nc3cc(CN4CCC[C@H]4C(=O)O)c(OC(F)F)cc3o2)cccc1-c1cccc(-c2nc3cc(CN4CCC(CN(C)C)C4)cc(C#N)c3o2)c1C (stereo partly drawn) [Example 152, ((2-(3′-(7-cyano-5-((3-((dimethylamino)methyl)pyrrolidin-1-yl)methyl)benzo [d]oxazol-2-yl)-2,2′-dimethyl-[1,1′-biphenyl]-3-yl)-6-(difluoromethoxy)benzo[d]oxazol-5-yl)methyl)-L-proline]
16 | 8.30 to 10.00 | Cc1c(-c2nc3cc(CN4CCC[C@H]4C(=O)O)c(OC(F)F)cc3o2)cccc1-c1cccc(-c2nc3cc(CN4CCC5(C4)CC5(F)F)cc(C#N)c3o2)c1C (stereo partly drawn) [Example 153, ((2-(3′-(7-cyano-5-((1,1-difluoro-5-azaspiro[2.4]heptan-5-yl)methyl)benzo [d]oxazol-2-yl)-2,2′-dimethyl-[1,1′-biphenyl]-3-yl)-6-(difluoromethoxy)benzo[d]oxazol-5-yl)methyl)-L-proline]
